Test results reported in PubChem BioAssay (NCI).
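Cells were grown in 96-well plates and exposed to each compound for 48 hours at five concentrations; endpoints were interpolated linearly between bracketing concentrations, or set to the highest concentration if not reached. At the TGI there is no net growth.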

What was measured:
Assay in all cases: NCI tumour cell line growth inhibition, 48 h
[1] = tested on: RXF 393 renal
[2] = tested on: MDA-MB-231 breast
[3] = tested on: LOX IMVI melanoma
[4] = tested on: DU-145 prostate
[5] = tested on: NCI-H23 lung
[6] = tested on: SNB-75 CNS
[7] = tested on: TK-10 renal
[8] = tested on: RPMI-8226 leukemia
[9] = tested on: MDA-MB-435

Row | SMILES | TGI [1] [µM] | TGI [2] [µM] | TGI [3] [µM] | TGI [4] [µM] | TGI [5] [µM] | TGI [6] [µM] | TGI [7] [µM] | TGI [8] [µM] | TGI [9] [µM]
1 | OC1(c2ccc(Cl)cc2)c2c(c3ccccc3c3ccccc23)C2=NCCN21 (configuration not stated) | 24.7 | 26.8 | 73.8 | 45.6 | 24.5 | 7.52 | 16.8 | > 100 | > 100
2 | COc1ccc(N2N=NN(C(C)C)/C2=C(/Cl)c2nnnn2-c2ccc(OC)cc2)cc1 | 27.4 | 22.6 | 6.82 | 22.7 | 33 | 26.5 | 30.1 | > 61.2 | 25.5
3 | Nc1ccccc1OCCCOc1ccccc1N | > 100 | > 100 | > 100 | > 100 | > 100 | > 100 | > 100 | > 100 | > 100
4 | CN(C)CC1CCCc2ccccc2C1=O (configuration not stated) | 11.7 | 9.7 | 4.49 | 10.7 | 15.2 | 56.2 | 14.7 | 0.21 | 2.62
5 | Cc1cn([C@@H]2C[C@H](CO)[C@@H]2O)c(=O)[nH]c1=O | > 100 | > 100 | > 100 | > 100 | > 100 | > 100 | > 100 | > 100 | > 100
6 | O=C(CSCC(=O)N/N=C\c1ccccc1F)N/N=C\c1ccccc1F | > 100 | > 100 | > 100 | > 100 | > 100 | > 100 | > 100 | > 100 | > 100
7 | O=C(/C=C/c1ccccc1)Oc1cccc(Br)c1 | > 100 | > 100 | > 100 | > 100 | > 100 | > 100 | > 100 | 40.2 | > 100
8 | COc1cc(/C=C/C(=N\NC(=S)NN)c2sc(NNC(C)=O)nc2C)ccc1O | > 100 | > 100 | > 100 | > 100 | > 100 | > 100 | > 100 | > 100 | > 100
9 | Cc1ccc2c(=O)cc(Cc3csc4ccccc34)[nH]c2n1 | > 100 | > 100 | 40.6 | > 100 | 53.4 | 79.6 | > 100 | > 100 | > 100
10 | O=C1CCCCN1C(=O)c1ccc([N+](=O)[O-])cc1 | > 100 | > 100 | > 100 | > 100 | > 100 | > 100 | > 100 | > 100 | > 100
11 | O=C1O[C@H]2C3C4CCC(C4[C@@H]2I)[C@H]13 (some centres not stated) | > 100 | > 100 | > 100 | > 100 | > 100 | > 100 | > 100 | > 100 | > 100
12 | CC1(C)CN=CC(C)(OCc2ccccc2)C(=O)NC(C)(C)CN=CC(C)(OCc2ccccc2)C(=O)N1 (configuration not stated) | > 10 | > 10 | > 10 | > 10 | > 10 | > 10 | > 10 | > 10 | > 10
13 | CCN(CC)C1Oc2cc3c(cc2C(c2cccc(OC)c2O)C1C)OCO3 (configuration not stated) | 21.2 | > 49.7 | 22.2 | > 66.7 | 43.5 | 23.1 | > 100 | 13.6 | 4.96
14 | CC(=O)OCC1OC(n2c(N)c(C#N)c(-c3cccc(Cl)c3)c(C#N)c2=S)C(OC(C)=O)C(OC(C)=O)C1OC(C)=O (configuration not stated) | 22 | 50.2 | 30.1 | 82 | 92.7 | 56.2 | 54.2 | 39.7 | 50
15 | O=C1C=C(O)c2c(O)ccc(O)c2C1=O | > 100 | > 100 | > 100 | > 100 | > 100 | > 100 | > 100 | > 100 | > 100
16 | N#CCc1nc2cc(C(F)(F)F)ccc2s1 | > 100 | > 100 | 80.2 | > 100 | 94.8 | > 100 | > 100 | > 100 | > 100
17 | CC(C)C1=C(Cc2ccccc2)C(=O)O/C1=C\c1ccc(O)c(Cl)c1 | 31.2 | 29.9 | 32.3 | 32.4 | 25.8 | 30.6 | 31.8 | 28.1 | 30.7

Row | SMILES | TGI [1] [µM] | TGI [2] [µM] | TGI [3] [µM] | TGI [4] [µM] | TGI [5] [µM] | TGI [6] [µM] | TGI [7] [µM] | TGI [8] [µM] | TGI [9] [µM]
18 | CN(C)C=NCC(O)c1ccccc1 (configuration not stated) | > 100 | > 100 | > 100 | > 100 | > 100 | > 100 | > 100 | > 100 | > 100
19 | COc1ccc(Cn2c3ccc([N+](=O)[O-])cc3c(=O)n2Cc2ccccn2)cc1 | > 100 | > 100 | > 100 | > 100 | > 100 | > 100 | > 100 | > 100 | > 100
20 | C[N+]1([O-])[C@H]2CC(OC(=O)[C@H](CO)c3ccccc3)C[C@H]1[C@H]1O[C@H]12 (some centres not stated) | > 100 | > 100 | > 100 | > 100 | > 100 | > 100 | > 100 | > 100 | > 100
21 | S=C(N/N=C(\C(=N/NC(=S)N1CCCCC1)c1ccccn1)c1ccccn1)N1CCCCC1 | 73.4 | > 100 | > 100 | > 100 | > 100 | > 100 | > 100 | > 100 | > 100
22 | CC(C)=CCC[C@@H](C)C1=CC(=O)C(C)=C(O)C1=O | 5.92 | 18.1 | 11.9 | 15.7 | 21.1 | 14 | 15.7 | 5.64 | 16.9
23 | O=c1c2cc(I)ccc2nc(SCc2nnco2)n1Cc1ccccc1 | > 100 | > 100 | > 100 | > 100 | > 100 | > 100 | > 100 | > 100 | > 100
24 | CN1C=COC1N=C1CCCCC1 (configuration not stated) | > 100 | > 100 | > 100 | > 100 | > 100 | > 100 | > 100 | > 100 | > 100
25 | COc1ccc(C2C(C#N)=C(S)N(C3OC(CO)C(O)C(O)C3O)C(C)=C2C(C)=O)cc1 (configuration not stated) | > 100 | > 100 | > 100 | > 100 | > 100 | > 100 | > 100 | > 100 | > 100
26 | COc1cc2[nH]c(=O)c3cc(C)cc4c(Cl)nc(c1OC)c2c43 | 58.1 | > 100 | > 100 | > 100 | > 100 | 85.3 | > 100 | > 100 | > 100
27 | CCOC(=O)C(NC(=O)CC)(Nc1ccc(S(=O)(=O)Nc2ccc(OC)nn2)cc1)C(F)(F)F (configuration not stated) | > 100 | > 100 | > 100 | > 100 | > 100 | > 100 | > 100 | > 100 | > 100
28 | CC1C(C#N)(C#N)C(C#N)=C(N)C1(C)[N+](=O)[O-] (configuration not stated) | > 100 | > 100 | > 100 | > 100 | > 100 | > 100 | > 100 | > 100 | > 100
29 | C[C@@]12C[C@@H](c3ccccc3O1)N1Cc3ccccc3CSC1=N2 | > 100 | > 100 | > 100 | > 100 | > 100 | > 100 | > 100 | > 100 | > 100
30 | CC(=O)N1C(Nc2cccc3nc(C)ccc23)CCN1c1ccccc1 (configuration not stated) | > 10 | > 10 | > 10 | > 10 | > 10 | > 10 | > 10 | > 10 | > 10
31 | OC(C1CCCCCCCCCC1)C(O)C1CCCCCCCCCC1 (configuration not stated) | > 100 | > 100 | > 100 | > 100 | > 100 | > 100 | > 100 | > 100 | > 100
32 | COC1=CC(=O)c2nc3ccccc3c3ccnc1c23 | 16.2 | > 69 | 22.7 | 14.4 | 16 | 46.1 | > 66.9 | > 65.5 | 0.38
33 | Cc1ccc(N=C2SC(=NN(C)C)SC2=Nc2ccc(C)cc2)cc1 | > 100 | > 100 | > 100 | > 100 | > 100 | > 100 | > 100 | > 100 | > 100
